The test system of one data set is B16 melanoma. As to the kind of experiment: Anti-tumor activity in B16 melanoma mouse model. It counts as in vivo. Conditions: B16 mice, i.p.; antibody drugs 150 μg, D18 25 μg per mouse; dosing to day 21. From the text:
(§1) A. Treatment with ADC HE-S2, single administration of anti-PD-L1 antibody, D18, or anti-PD-L1 THIOMAB, and anti-PD-L1 antibody/D18 combined administration for inhibitory activity against mouse MC38 tumor growth. B. Whole animal survival study. The ordinate of the curve represents the percentage of tumor-bearing mice that remained alive after different days, and the abscissa thereof represents the number of experimental days. C. Treatment with ADC HE-S2, single administration of anti-PD-L1 antibody, D18, or anti-PD-L1 THIOMAB, and anti-PD-L1 antibody/D18 combined administration for inhibitory activity against mouse MC38 tumor growth. Student's t test was used to compare significant differences between the groups, and p<0.001 is represented by ***.
B16 melanoma is a tumor with low PD-L1 level and certain drug resistance to PD-1/PD-L1 blocking treatment. As a result, as expected by the inventors, the inhibitory effect of each drug on B16 melanoma was reduced relative to the MC38 tumor.
(§2) Dosage: Antibody drugs, administered 150 μg per mouse for each time, and D18, administered 25 μg per mouse for each time. - means no administration on the day. * Only mice with MC38 tumor model were allowed to be administered until the 24th day, and mice with B16 tumor model were no longer administered after the 21st day.

Data set [1] in a line: Effect of drug treatment on body weight of healthy mice. Type of data set: in vivo, mouse. The conditions noted are these: antibody drugs 150 μg, D18 25 μg per dose. How it is done:
Mice were treated with ADC HE-S2, anti-PD-L1 antibody+D18 in combination, anti-PD-L1 antibody alone, D18 alone, and isotype IgG, and their body weight variations were recorded. The time of administration for each drug is indicated by the arrow. Student's t test was used to compare significance differences between groups, wherein p<0.05 is represented by *. p<0.01 is represented by **, and no significance difference is represented by ns.
Then, the inventors examined the effect of each group of drug treatment on the body weight of mice in a mouse model to determine the toxic and side effects of the drugs used, and the results are shown in FIG. 17. Healthy mice were divided into an ADC group, an anti-PD-L1 antibody+D18 group, an anti-PD-L1 antibody group, a D18 group and an IgG group according to the administration, with 5 mice per group. The mode and dose of administration for each group of mice were the same as those in the mouse tumor model experiment: in the ADC group, ADC HE-S2 was dosed once a week, and the anti-PD-L1 antibody was […], 150 μg for each time; D18 was dosed once a week, 25 μg for each time; the anti-PD-L1 antibody and the IgG isotype antibody were dosed twice a week, 150 μg for each time.

The next data set deals with MC38 tumor. The data set is described as follows: Anti-tumor activity and survival in MC38 mouse tumor model. It counts as in vivo. The conditions noted are these: for inhibitory activity against MC38 tumor growth: MC38 mice, i.p., antibody drugs 150 μg per mouse, D18 25 μg per mouse, schedule Table 1.
Excerpt: as §1
To verify the anti-cancer activity of ADC HE-S2, the inventors first made a mouse model with MC38. After the tumor was loaded, a visible tumor could be observed on the mouse surface for about one week. When the mean tumor tissue volume of the mice reached 100 mm^3, the mice were randomly grouped as follows according to the final type of drug administered: IgG isotype control antibody group (abbreviated as IgG), anti-PD-L1 antibody group (anti-PD-L1), anti-PD-L1 THIOMAB group (Thiomab), D18 group (D18), D18/anti-PD-L1 antibody combination treatment group (anti-PD-L1 & D18), and ADC HE-S2 group (ADC HE-S2), with 7-8 mice per group. The IgG isotype control antibody group, the anti-PD-L1 antibody (i.e., avelumab as described in Example 2) group, and the anti-PD-L1 THIOMAB (i.e., mutant antibody prepared in Example 2) group were administered twice a week via intraperitoneal injection of 150 μg per mouse for each time. The D18 group was administered twice a week via intraperitoneal injection of 25 μg per mouse for each time. In the D18/anti-PD-L1 antibody combination treatment group, the anti-PD-L1 antibody was dosed twice a week, 150 μg per mouse for each time; the D18 was dosed […], 25 μg per mouse for each time; in the ADC HE-S2 group, ADC HE-S2 was dosed once a week via intraperitoneal injection of 150 μg per mouse for each time; the anti-PD-L1 antibody was dosed once a week, staggered from the administration of the ADC, via intraperitoneal injection of 150 μg per mouse for each time.
as §2

Another data set concerns the target murine PD-L1 (Mus musculus, UniProt Q9EP73). Conditions: Deng et al., 2016; cited from earlier work.

murine PD-L1, sequence (Q9EP73 19-290): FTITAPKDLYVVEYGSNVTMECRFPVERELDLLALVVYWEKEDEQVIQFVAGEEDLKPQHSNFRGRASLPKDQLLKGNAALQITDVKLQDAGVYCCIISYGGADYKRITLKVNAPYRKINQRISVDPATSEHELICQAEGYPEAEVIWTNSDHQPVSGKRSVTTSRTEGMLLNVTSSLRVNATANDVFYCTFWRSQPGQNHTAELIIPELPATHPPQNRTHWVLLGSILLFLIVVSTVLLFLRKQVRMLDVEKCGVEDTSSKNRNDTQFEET

Take `CCCCNc1nc(N)nc2ccc(Cc3ccc(CN(C)C)cc3)nc12` [D18, N^4-butyl-6-(4-((dimethylamino)methyl)benzyl)pyridine[3,2-d]pyriproxyfen-2,4-diamine]: the “inhibitory effect on B16 melanoma” value in the data set on B16 melanoma is on record as “almost comparative to that of the IgG isotype antibody”. Moreover, the “body weight change of the mice after administration” value in data set [1] is reported as “some decreases in body weight”. Besides, in the data set on MC38 tumor, the “inhibitory activity against MC38 tumor growth” value was “slightly superior to the efficacy of the IgG isotype antibody”. Also, in the data set on MC38 tumor (until day 70), the “survival rate of mice” value is 1/8.
As to “anti-PD-L1 antibody: fully humanized IgG1 type monoclonal anti-PD-L1 antibody drug avelumab [reference compound]”, the “inhibitory effect on B16 melanoma” value in the data set with B16 melanoma is “almost comparative to that of the IgG isotype antibody”. Further, the “body weight change of the mice after administration” value in data set [1] is reported as “almost consistent with that of the blank control IgG group”. Moreover, the “inhibitory activity against MC38 tumor growth” value in the data set with MC38 tumor is on record as “slightly superior to the efficacy of the IgG isotype antibody”. Besides, the “cross-reaction with murine PD-L1” value with murine PD-L1 is listed as “cross-react with murine PD-L1”.

The record behind these values is patent US20240252670A1, “ANTIBODY DRUG CONJUGATE, PREPARATION METHOD THEREFOR AND APPLICATION THEREOF” (TSINGHUA UNIVERSITY, priority 2021, published 2024).
